Experimental data from patent US20220226340A1, “CASEIN KINASE 1 INHIBITORS FOR USE IN THE TREATMENT OF DISEASES RELATED TO DUX4 EXPRESSION SUCH AS MUSCULAR DYSTROPHY AND CANCER” (Facio Intellectual Property B.V., priority 2019, published 2022).
Like-named read-outs stand apart in the source and are kept apart here.

Key:
CK1α = CK1α (Homo sapiens, UniProt P48729); assay: CK1α inhibition IC50; assay type: biochemical
CK1ε = CK1ε (Homo sapiens, UniProt P49674); assay: CK1ε inhibition IC50; assay type: biochemical
p38α = p38α (Homo sapiens, UniProt Q16539); assay: p38α inhibition IC50; assay type: biochemical
DUX4 = assay: high-content immunocytochemistry assay of endogenous DUX4 expression in differentiating primary FSHD myotubes; assay type: cell-based, human; settings: for EC50: Homo sapiens, Myotube
Source text: (§1) A quantitative assay readout was developed based on script-based image analysis. […] To analyse the images, an automated script was developed, enabling the detection of nuclei, myotube borders and DUX4 signals, with the script also detecting artefacts to reduce false positive signals. The script enabled multiple validated readouts including the number of DUX4 positive nuclei and nuclei clusters, the fusion index, myotube area, myotube width and myotube skeleton length (see FIG. 2). Additionally, the total nuclei count was included as a measure of cell loss or compound toxicity.
A compound library containing approximately 5000 annotated compounds was screened in the high-content assay. For this purpose, primary myoblasts were seeded in 384 well plates after which the growth medium was replaced with differentiation medium. After 3 days of differentiation, cells were treated with library compounds (in duplicate on different screening plates) for 15 h, after which they were fixed and stained with antibodies against DUX4, antibodies against myosin heavy chain (MHC), and with DAPI (4′,6-diamidino-2-phenylindole). Script-based analysis provided readouts for DUX4 expression (count of DUX4-positive nuclei or DUX4 intensity) and for potential toxicity (fusion index and nuclei count).
Compounds were incubated with primary FSHD cells for 15 hours, as indicated by the arrow in FIG. 4A.
(§2) Compounds are administered either 15 h before fixation, resembling the original screening protocol, or 72 h before fixation (grey arrow). In the latter case, compounds are present during the whole differentiation process.

CK1δ = CK1δ (Homo sapiens, UniProt P48730); assay: CK1δ inhibition IC50; assay type: biochemical
primary FSHD cells = assay: fusion index (myotube fusion) readout of the high-content assay in primary FSHD cells; assay type: cell-based, human; settings: for effect on fusion index / myotube fusion: 72 h treatment, compound present during whole differentiation
Source text: as §1, §2

[1] = Table 7, p38 compounds, read-out: IC50 CK1a
[2] = 72 h, Table 4, 72 h treatment protocol, read-out: DUX4 EC50
[3] = 72 h, Table 6, 72 h treatment protocol, read-out: DUX4 EC50
[4] = 15 h, read-out: EC50 for DUX4 repression
[5] = Table 7, p38 compounds, read-out: IC50 p38

Chain of p38α (Q16539 whole entry): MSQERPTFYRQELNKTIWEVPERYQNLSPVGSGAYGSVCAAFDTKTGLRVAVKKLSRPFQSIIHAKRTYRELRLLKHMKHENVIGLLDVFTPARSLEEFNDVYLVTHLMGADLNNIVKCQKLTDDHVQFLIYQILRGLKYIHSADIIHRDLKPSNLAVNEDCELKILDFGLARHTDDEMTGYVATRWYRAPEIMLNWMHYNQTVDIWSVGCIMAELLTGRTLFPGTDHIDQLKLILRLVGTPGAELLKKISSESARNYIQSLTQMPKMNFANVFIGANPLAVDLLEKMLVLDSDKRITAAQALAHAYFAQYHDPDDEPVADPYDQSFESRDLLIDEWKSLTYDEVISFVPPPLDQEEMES
Chain of CK1α (P48729 whole entry): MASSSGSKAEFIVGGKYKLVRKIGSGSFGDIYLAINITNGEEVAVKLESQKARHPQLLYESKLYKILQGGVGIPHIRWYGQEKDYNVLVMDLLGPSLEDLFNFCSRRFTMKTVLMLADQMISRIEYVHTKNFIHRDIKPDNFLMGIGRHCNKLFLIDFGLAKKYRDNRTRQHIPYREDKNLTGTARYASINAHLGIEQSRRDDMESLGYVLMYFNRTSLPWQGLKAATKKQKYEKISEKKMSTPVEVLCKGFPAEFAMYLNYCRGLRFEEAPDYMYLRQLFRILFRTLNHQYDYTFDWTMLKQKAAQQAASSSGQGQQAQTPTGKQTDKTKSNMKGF
Chain of CK1δ (P48730 whole entry, the tested form may be a part): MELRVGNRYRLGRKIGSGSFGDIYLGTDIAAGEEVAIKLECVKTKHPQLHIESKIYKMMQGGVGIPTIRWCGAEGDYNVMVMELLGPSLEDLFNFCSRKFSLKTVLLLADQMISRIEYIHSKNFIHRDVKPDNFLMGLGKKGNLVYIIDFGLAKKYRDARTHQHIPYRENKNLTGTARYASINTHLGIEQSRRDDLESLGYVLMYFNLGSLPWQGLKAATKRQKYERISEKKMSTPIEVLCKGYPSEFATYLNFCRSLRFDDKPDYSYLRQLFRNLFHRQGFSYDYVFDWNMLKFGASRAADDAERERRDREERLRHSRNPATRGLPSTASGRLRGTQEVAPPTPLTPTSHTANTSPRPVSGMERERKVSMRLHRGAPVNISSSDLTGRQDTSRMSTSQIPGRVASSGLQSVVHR
Chain of CK1ε (P49674 whole entry): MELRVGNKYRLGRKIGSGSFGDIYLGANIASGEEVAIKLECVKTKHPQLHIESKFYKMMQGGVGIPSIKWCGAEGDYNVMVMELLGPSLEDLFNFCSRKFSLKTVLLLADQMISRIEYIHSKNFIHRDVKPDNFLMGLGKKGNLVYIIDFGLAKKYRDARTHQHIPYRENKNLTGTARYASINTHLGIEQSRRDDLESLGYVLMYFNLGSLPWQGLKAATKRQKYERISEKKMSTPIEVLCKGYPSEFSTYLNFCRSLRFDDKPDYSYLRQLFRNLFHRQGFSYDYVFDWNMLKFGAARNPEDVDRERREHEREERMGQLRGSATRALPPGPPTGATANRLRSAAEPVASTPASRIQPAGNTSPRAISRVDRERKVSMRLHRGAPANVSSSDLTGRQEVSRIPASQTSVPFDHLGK

IC50 (p38α; Table 4, read-out: p38a IC50) [nM]	EC50 (DUX4; [2]) [nM]	EC50 (DUX4; [3]) [nM]	IC50 (CK1δ; Table 4, read-out: CK1 d IC50) [nM]	IC50 (CK1α; Table 4, read-out: CK1 a IC50) [nM]	IC50 (CK1α; Table 6, read-out: IC50 CK1α) [nM]	IC50 (p38α; Table 6, read-out: IC50 p38α) [nM]	IC50 (CK1δ; Table 6, read-out: IC50 CK1δ) [nM]	Compound	other results
–	–	–	–	–	–	–	–	C[C@@H]1CN(Cc2ccc(F)cc2)[C@@H](C)CN1C(=O)c1cc2c(C(=O)C(=O)N(C)C)cn(C)c2cc1Cl [SCIO469, reference compound]	IC50 (CK1α; [1]): > 10000 nM
74.3	620	620	19.8	–	–	–	–	Nc1nccc(-c2c(-c3ccc(F)cc3)ncn2C2CCN(Cc3ccon3)CC2)n1 [PF-5006739, reference compound]	IC50 (CK1ε; Table 3, read-out: CK1 e IC50): 26.8 nM; IC50 (CK1ε; Table 4, read-out: CK1 e IC50): 26.8 nM; IC50 (p38α; Table 3, read-out: p38a IC50): 74.3 nM; IC50 (CK1δ; Table 3, read-out: CK1 d IC50): 19.8 nM
–	–	–	–	–	–	–	–	CN1Cc2nccc(-c3cn(C)nc3-c3ccc(F)cc3)c2C1=O [Nr. 5]	EC50 (DUX4; 15 h, read-out: DUX4 EC50): 1890 nM; EC50 (DUX4; [4]): 1900 to 3100 nM; EC50 (DUX4; 72 h, read-out: DUX4 EC50): 6700 nM; myotube formation in the presence of increasing concentrations of losmapimod (primary FSHD cells; 72 h, CK1 inhibitor combined with losmapimod, microscopic images): myotube formation is still intact
–	–	–	–	–	–	–	–	Fc1cccc(-n2cnc3c(NCc4nc5ccc(F)c(F)c5[nH]4)nc(N4CCOCC4)nc32)c1 [SR-3029, reference compound]	IC50 (p38α; Table 3, read-out: p38a IC50): > 1000 nM; EC50 (DUX4; 15 h, read-out: DUX4 EC50): 50 nM; EC50 (DUX4; [4]): 50 to 120 nM
449	4900	4900	80.7	4020	4020	449	81	Cc1cc(-c2cn(C)nc2-c2ccc(F)cc2)ccn1 [Nr. 19]	–
–	250	250	–	–	–	–	–	CN1CCN(c2ccc3nc(-c4ccccc4)c(-c4ccncc4)n3n2)CC1 [Nr. 11]	–
–	–	–	–	–	–	–	–	CNC(=O)c1ccc(C)c(-n2c(C)cc(OCc3ccc(F)cc3F)c(Br)c2=O)c1 [PH797804, reference compound]	IC50 (CK1α; [1]): > 10000 nM
63.2	2900	2900	36.1	873	873	63	36	Cn1cc(-c2ccncc2)c(-c2ccc(F)cc2)n1 [Nr. 17]	–
21.7	480	480	55.7	331	331	22	58	Fc1ccc(-c2nc3sc(N4CCNCC4)nn3c2-c2ccncc2)cc1 [Nr. 24]	–
–	–	–	–	–	–	–	–	Cc1cc(F)ccc1-c1nc(NC(CO)CO)nc2c1ccc(=O)n2-c1c(F)cccc1F [SB-681323, reference compound]	IC50 (CK1α; [1]): > 10000 nM; IC50 (p38α; [5]): 11 nM; effect on fusion index / myotube fusion (primary FSHD cells): inhibited the fusion index
28.9	100	100	58.5	61.4	61	29	58	Fc1ccc(-c2nc3ccc(N4CCNC5(CC5)C4)nn3c2-c2ccncc2)cc1 [Nr. 21]	–
–	8100	8100	–	–	–	–	–	Cn1cc(-c2ccnc3c2C(=O)N(C2CCOCC2)C3)c(-c2ccc(F)cc2)n1 [Nr. 6]	IC50 (CK1ε; Table 3, read-out: CK1 e IC50): 72.4 nM; IC50 (CK1ε; Table 4, read-out: CK1 e IC50): 72.4 nM
42	390	390	45	270	270	42	45	Fc1ccc(-c2nc3ccc(N4CCC(N5CCCC5)CC4)nn3c2-c2ccncc2)cc1 [Nr. 14]	–
–	–	–	–	–	–	–	–	CCCNC(=O)c1cn2ncnc(Nc3cc(C(=O)NC4CC4)ccc3C)c2c1C [BMS-582949, reference compound]	IC50 (CK1α; [1]): > 10000 nM
–	–	–	–	–	–	–	–	Cc1ccc(C(=O)NC2CC2)cc1-n1ncc(C(=O)c2cccc(C#N)c2)c1N [Acumapimod, reference compound]	IC50 (CK1α; [1]): > 10000 nM; IC50 (p38α; [5]): 22 nM; effect on fusion index / myotube fusion (primary FSHD cells): inhibited the fusion index
1250	2400	2400	2090	> 10000	> 10000	1250	2090	Fc1ccc(-c2nc3ccc(N4CCOCC4)nn3c2-c2ccncc2)cc1 [Nr. 23]	–
50.3	2200	2200	55.5	186	186	50	55	Fc1ccc(-c2nn(CC(F)(F)F)cc2-c2ccnc3[nH]ccc23)cc1 [Nr. 20]	–

IC50 (p38α; Table 4, read-out: p38a IC50) [nM]	EC50 (DUX4; [2]) [nM]	EC50 (DUX4; [3]) [nM]	IC50 (CK1δ; Table 4, read-out: CK1 d IC50) [nM]	IC50 (CK1α; Table 4, read-out: CK1 a IC50) [nM]	IC50 (CK1α; Table 6, read-out: IC50 CK1α) [nM]	IC50 (p38α; Table 6, read-out: IC50 p38α) [nM]	IC50 (CK1δ; Table 6, read-out: IC50 CK1δ) [nM]	Compound	other results
–	–	–	–	–	–	–	–	CC(C)(C)Cn1c(N)nc2ccc(-c3[nH]c(C(C)(C)C)nc3-c3ccc(F)cc3)nc21 [LY2228820, reference compound]	IC50 (CK1α; [1]): > 10000 nM; IC50 (p38α; [5]): 14 nM; IC50 (CK1δ; Table 7, p38 compounds, read-out: IC50 CK1d): 2780 nM; effect on fusion index / myotube fusion (primary FSHD cells): inhibited the fusion index
–	–	–	–	–	–	–	–	Cn1c(=O)c(Oc2ccc(F)cc2F)cc2cnc(NC(CCO)CCO)nc21 [Pamapimod, reference compound]	IC50 (CK1α; [1]): > 10000 nM
23	340	340	29	65	65	23	29	CN1CCN(c2ccc3nc(-c4ccc(F)cc4)c(-c4ccncc4)n3n2)CC1 [Nr. 2]	–
–	–	–	–	–	–	–	–	NC(=O)c1ccc(N(C(N)=O)c2c(F)cccc2F)nc1-c1ccc(F)cc1F [VX702, 2-(2,4-difluorophenyl)-6-(1-(2,6-difluoropheny)ureido)nicotinamide, reference compound]	IC50 (CK1α; [1]): > 10000 nM
312	8200	8200	46.5	636	636	312	46	Cn1cc(-c2ccnc(N)n2)c(-c2ccc(F)cc2)n1 [Nr. 18]	–
–	5000	5000	–	–	–	–	42	COCCN1Cc2nccc(-c3cn(C)nc3-c3ccc(F)cc3)c2C1=O [Nr. 7]	IC50 (CK1ε; Table 6, read-out: IC50 CK1ε): 92 nM
15.9	780	780	115	1830	1830	16	115	OCCC#Cc1nc(-c2ccc(F)cc2)c(-c2ccncc2)n1CCCc1ccccc1 [RWJ 67657, reference compound]	–
13.2	40	40	18.5	29.5	29	–	18	CC1(C)CN(c2ccc3nc(-c4ccc(F)cc4)c(-c4ccncc4)n3n2)CCN1 [Nr. 1]	IC50 (CK1α; Table 3, read-out: CK1 a IC50): 29.5 nM; IC50 (CK1ε; Table 3, read-out: CK1 e IC50): 12.4 nM; IC50 (CK1ε; Table 4, read-out: CK1 e IC50): 12.4 nM; IC50 (p38α; Table 3, read-out: p38a IC50): 13.2 nM; EC50 (DUX4; 15 h, Table 3, 15 h treatment protocol, primary FSHD cells, read-out: EC50 for DUX4 repression): 40 nM; IC50 (CK1δ; Table 3, read-out: CK1 d IC50): 18.5 nM
–	1200	1200	16.9	196	196	–	17	Cn1cc(-c2ccnc3[nH]ccc23)c(-c2ccc(F)cc2)n1 [Nr. 16]	IC50 (p38α; IC50 p38α, Table 6): 18 nM; IC50 (p38α; p38a IC50, Table 4): 17.9 nM
–	310	310	–	–	–	–	–	c1ccc(-c2nc3ccc(N4CCC(N5CCCC5)CC4)nn3c2-c2ccncc2)cc1 [Nr. 13]	–
–	–	–	–	–	–	–	–	Cc1c(F)cc(C(=O)NC2CC2)cc1-c1ccc(C(=O)NCC(C)(C)C)cn1 [Losmapimod, reference compound]	IC50 (CK1α; [1]): > 10000 nM; effect on DUX4 (DUX4; added during the last 15 h of differentiation): did not show any effect
–	10	10	–	–	–	–	–	CC1(C)CN(c2ccc3nc(-c4ccccc4)c(-c4ccncc4)n3n2)CCN1 [Nr. 10]	–
–	–	–	–	–	–	–	–	Cc1ccc(-n2nc(C(C)(C)C)cc2NC(=O)NCc2cc(F)ccc2Oc2ccc3c(cnn3CCO)c2)cc1 [pexmetinib, reference compound]	IC50 (CK1α; [1]): > 10000 nM
411	1100	1100	57.7	194	194	411	58	Fc1ccc(-c2nc3ccc(N4CCNCC4)nn3c2-c2ccnnc2)cc1 [Nr. 22]	–
–	50	50	–	–	–	–	–	c1ccc(-c2nc3ccc(N4CCNCC4)nn3c2-c2ccncc2)cc1 [Nr. 12]	–
32.4	760	760	–	–	–	–	–	Nc1nccc(-c2c(-c3ccc(F)cc3)ncn2C2CCCCC2)n1 [PF-670462, reference compound]	IC50 (p38α; Table 3, read-out: p38a IC50): 32.4 nM; effect on DUX4 (DUX4; 72 h treatment): repress DUX4

Compound	IC50 (p38α; Table 4, read-out: p38a IC50) [nM]	EC50 (DUX4; [2]) [nM]	EC50 (DUX4; [3]) [nM]	IC50 (CK1δ; Table 4, read-out: CK1 d IC50) [nM]	IC50 (CK1α; Table 4, read-out: CK1 a IC50) [nM]	IC50 (CK1α; Table 6, read-out: IC50 CK1α) [nM]	IC50 (p38α; Table 6, read-out: IC50 p38α) [nM]	IC50 (CK1δ; Table 6, read-out: IC50 CK1δ) [nM]	other results
CNCc1cc(-c2cn(C)nc2-c2ccc(F)cc2)ccn1 [Nr. 9]	–	–	–	–	–	–	–	58	EC50 (DUX4; [4]): 3100 to 5500 nM; EC50 (DUX4; 72 h, read-out: DUX4 EC50): 6400 nM
